Reference: paper PMC5564600 (Oncotarget, 2017)
Where two headings read alike, the source gives them in different places.

Assays:
Experiment in all cases: biochemical
Type in all cases: binding
panel of 442 kinases [1] = biological target: T1, panel of 442 kinases (Homo sapiens, UniProt Q12866); settings: kinase MERTK; for remaining activity at 1 µM: read-out: % of control at 1 µM
T1 construct: purchased Ambit Biosciences (scanMAXX KINOMEscan)
T1 sequence (Q12866 21-999): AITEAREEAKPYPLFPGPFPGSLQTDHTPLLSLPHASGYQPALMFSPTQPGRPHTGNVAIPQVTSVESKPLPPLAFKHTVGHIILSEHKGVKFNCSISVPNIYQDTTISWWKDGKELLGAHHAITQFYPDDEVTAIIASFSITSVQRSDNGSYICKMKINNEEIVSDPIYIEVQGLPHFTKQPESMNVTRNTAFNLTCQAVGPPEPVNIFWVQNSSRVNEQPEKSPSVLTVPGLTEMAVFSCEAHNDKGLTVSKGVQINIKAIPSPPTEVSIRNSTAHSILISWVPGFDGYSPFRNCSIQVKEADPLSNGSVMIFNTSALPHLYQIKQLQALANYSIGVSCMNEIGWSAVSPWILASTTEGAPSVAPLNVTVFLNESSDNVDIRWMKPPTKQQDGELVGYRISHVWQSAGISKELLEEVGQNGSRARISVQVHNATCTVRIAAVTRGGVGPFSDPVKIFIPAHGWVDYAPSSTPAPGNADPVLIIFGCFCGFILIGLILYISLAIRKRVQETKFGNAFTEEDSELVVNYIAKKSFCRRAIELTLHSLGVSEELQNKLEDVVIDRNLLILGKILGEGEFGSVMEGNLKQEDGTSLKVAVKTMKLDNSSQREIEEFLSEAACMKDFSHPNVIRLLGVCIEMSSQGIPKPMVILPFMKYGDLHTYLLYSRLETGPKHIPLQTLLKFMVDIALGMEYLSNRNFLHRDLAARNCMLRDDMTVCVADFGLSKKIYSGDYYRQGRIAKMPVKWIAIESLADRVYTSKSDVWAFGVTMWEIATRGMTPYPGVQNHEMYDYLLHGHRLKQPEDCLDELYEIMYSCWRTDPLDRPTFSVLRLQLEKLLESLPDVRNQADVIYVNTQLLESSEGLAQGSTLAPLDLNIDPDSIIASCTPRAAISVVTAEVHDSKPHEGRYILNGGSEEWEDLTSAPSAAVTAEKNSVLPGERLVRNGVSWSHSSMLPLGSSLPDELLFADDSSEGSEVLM

panel of 442 kinases [2] = biological target: T2, panel of 442 kinases (Homo sapiens, UniProt Q9Y463); settings: DYRK1B; for remaining activity at 1 µM: read-out: % of control at 1 µM
T2 construct: purchased Ambit Biosciences (scanMAXX KINOMEscan)
T2 sequence (Q9Y463 whole entry): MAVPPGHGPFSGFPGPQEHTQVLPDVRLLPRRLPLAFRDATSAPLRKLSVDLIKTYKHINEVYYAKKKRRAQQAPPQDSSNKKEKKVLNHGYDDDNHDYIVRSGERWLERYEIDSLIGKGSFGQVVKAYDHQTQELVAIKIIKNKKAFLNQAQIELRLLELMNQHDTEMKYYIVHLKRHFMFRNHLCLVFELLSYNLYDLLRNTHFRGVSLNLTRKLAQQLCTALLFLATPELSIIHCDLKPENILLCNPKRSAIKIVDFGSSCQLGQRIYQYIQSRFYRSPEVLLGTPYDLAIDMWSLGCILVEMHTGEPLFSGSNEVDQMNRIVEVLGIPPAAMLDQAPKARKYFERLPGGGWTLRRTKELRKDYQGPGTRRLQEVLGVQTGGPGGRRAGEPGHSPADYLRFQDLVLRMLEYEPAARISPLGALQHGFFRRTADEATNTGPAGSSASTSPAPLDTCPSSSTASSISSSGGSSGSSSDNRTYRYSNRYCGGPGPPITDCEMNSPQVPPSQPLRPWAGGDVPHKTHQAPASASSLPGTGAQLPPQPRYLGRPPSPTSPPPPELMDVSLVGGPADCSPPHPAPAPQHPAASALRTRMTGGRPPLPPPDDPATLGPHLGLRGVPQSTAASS

panel of 442 kinases [3] = biological target: T3, panel of 442 kinases (Homo sapiens, UniProt Q13523); settings: kinase PRP4; for remaining activity at 1 µM: read-out: PRP4 (% of control at 1 µM)
T3 construct: purchased Ambit Biosciences (scanMAXX KINOMEscan)
T3 sequence (Q13523 whole entry): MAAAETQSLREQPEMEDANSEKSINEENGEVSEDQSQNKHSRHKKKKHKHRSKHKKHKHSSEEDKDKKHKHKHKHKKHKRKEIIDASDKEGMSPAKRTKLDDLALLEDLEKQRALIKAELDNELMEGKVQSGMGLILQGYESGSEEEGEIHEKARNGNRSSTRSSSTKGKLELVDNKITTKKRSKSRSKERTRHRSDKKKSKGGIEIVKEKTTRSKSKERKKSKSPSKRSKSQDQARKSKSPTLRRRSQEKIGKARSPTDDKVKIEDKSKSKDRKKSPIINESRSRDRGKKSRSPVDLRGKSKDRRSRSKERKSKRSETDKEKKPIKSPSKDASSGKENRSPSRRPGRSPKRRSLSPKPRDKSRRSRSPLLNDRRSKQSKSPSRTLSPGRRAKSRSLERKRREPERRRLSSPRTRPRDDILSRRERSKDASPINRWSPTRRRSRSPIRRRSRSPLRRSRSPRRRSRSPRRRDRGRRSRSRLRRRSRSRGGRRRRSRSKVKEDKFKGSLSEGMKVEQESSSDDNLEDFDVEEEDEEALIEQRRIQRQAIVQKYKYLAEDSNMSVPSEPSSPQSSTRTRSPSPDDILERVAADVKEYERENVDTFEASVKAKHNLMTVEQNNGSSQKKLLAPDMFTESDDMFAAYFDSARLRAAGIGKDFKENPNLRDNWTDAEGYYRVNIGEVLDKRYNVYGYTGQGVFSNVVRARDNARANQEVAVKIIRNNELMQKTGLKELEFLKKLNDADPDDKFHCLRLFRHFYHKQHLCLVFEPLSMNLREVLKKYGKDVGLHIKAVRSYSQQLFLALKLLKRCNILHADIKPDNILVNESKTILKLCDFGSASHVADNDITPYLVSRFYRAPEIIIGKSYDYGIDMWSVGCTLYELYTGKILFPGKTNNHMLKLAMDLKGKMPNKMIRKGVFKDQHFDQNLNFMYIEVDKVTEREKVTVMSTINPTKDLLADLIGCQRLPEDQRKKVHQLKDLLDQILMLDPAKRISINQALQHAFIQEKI

panel of 442 kinases [4] = biological target: T4, panel of 442 kinases (Homo sapiens, UniProt Q13188); settings: kinase MST2; for remaining activity at 1 µM: read-out: % of control at 1 µM
T4 construct: purchased Ambit Biosciences (scanMAXX KINOMEscan)
T4 sequence (Q13188 1-491): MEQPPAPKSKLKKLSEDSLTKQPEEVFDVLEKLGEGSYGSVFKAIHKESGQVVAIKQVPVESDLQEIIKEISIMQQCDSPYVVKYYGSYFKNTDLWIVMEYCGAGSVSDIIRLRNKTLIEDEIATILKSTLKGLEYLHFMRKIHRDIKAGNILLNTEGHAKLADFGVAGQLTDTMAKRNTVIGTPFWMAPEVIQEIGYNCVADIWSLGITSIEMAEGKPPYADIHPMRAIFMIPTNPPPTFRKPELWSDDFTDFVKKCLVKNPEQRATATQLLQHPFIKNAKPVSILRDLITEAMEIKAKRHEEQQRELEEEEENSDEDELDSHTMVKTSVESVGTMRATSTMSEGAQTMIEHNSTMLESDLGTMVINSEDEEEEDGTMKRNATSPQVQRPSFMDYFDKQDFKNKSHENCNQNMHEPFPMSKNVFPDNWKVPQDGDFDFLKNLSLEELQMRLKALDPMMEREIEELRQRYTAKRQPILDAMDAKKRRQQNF

panel of 442 kinases [5] = biological target: T5, panel of 442 kinases (Homo sapiens, UniProt P37023); settings: ACVRL1; for remaining activity at 1 µM: read-out: % of control at 1 µM
T5 construct: purchased Ambit Biosciences (scanMAXX KINOMEscan)
T5 sequence (P37023 22-503): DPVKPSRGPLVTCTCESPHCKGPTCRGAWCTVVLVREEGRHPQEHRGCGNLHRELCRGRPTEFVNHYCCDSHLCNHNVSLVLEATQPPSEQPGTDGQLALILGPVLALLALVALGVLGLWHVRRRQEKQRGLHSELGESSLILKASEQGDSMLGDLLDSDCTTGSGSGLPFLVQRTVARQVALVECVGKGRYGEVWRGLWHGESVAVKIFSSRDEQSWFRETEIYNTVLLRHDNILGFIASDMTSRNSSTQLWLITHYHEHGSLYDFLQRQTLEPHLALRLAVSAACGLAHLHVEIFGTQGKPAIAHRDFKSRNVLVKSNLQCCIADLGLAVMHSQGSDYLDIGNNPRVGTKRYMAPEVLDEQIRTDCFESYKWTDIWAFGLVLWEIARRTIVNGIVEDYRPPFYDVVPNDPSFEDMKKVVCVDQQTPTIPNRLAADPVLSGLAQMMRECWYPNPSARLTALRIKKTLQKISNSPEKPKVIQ

panel of 442 kinases [6] = biological target: T6, panel of 442 kinases (Homo sapiens, UniProt P08069); settings: kinase IGF1R; for remaining activity at 1 µM: read-out: % of control at 1 µM
T6 construct: purchased Ambit Biosciences (scanMAXX KINOMEscan)
T6 sequence (P08069 31-1367): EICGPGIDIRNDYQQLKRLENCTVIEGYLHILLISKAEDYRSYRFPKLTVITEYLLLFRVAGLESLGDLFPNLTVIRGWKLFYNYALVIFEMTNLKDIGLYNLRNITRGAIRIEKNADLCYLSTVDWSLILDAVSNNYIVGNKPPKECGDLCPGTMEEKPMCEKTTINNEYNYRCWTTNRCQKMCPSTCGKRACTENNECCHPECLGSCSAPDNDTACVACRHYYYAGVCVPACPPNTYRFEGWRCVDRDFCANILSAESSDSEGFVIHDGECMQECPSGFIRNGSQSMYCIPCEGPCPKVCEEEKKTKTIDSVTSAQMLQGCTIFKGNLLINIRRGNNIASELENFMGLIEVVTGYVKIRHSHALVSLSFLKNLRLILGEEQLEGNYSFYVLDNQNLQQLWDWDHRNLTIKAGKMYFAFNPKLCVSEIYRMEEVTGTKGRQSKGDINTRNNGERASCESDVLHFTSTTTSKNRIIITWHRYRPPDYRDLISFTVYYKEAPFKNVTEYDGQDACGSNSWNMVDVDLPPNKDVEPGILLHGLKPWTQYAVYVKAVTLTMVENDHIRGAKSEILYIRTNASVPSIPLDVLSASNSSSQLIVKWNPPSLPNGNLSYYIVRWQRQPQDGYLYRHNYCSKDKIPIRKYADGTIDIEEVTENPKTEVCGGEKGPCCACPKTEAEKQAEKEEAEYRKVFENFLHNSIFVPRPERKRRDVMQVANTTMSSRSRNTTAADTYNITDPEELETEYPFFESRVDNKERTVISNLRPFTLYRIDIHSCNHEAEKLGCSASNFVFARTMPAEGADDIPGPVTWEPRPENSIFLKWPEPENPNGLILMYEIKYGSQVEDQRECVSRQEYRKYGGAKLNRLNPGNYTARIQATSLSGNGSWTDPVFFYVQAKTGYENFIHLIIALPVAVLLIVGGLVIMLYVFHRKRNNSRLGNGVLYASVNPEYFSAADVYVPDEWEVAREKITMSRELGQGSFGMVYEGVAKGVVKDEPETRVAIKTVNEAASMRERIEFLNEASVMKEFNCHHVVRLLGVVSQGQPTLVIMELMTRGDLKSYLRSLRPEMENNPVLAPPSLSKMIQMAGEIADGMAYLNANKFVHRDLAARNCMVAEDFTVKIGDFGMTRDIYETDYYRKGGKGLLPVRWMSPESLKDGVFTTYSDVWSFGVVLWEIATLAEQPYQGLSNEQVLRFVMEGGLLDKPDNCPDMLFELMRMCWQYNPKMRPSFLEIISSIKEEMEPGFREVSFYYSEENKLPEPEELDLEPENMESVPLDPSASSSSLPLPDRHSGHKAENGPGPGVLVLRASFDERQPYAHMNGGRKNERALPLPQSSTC

panel of 442 kinases [7] = biological target: T7, panel of 442 kinases (Homo sapiens, UniProt P78368); settings: CSNK1G2; for remaining activity at 1 µM: read-out: % of control at 1 µM
T7 construct: purchased Ambit Biosciences (scanMAXX KINOMEscan)
T7 sequence (P78368 whole entry): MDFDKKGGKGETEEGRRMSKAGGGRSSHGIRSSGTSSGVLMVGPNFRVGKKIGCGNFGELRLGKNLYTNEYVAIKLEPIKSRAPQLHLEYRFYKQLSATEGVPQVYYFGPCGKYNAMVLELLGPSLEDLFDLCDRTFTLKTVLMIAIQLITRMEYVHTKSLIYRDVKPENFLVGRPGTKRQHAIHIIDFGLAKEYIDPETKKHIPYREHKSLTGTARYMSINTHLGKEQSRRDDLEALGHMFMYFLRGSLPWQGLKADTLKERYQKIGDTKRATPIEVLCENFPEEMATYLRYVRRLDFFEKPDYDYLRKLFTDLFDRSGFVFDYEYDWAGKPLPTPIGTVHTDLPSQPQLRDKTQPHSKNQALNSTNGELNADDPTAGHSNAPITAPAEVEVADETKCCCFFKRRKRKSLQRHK

panel of 442 kinases [8] = biological target: T8, panel of 442 kinases (Homo sapiens, UniProt Q99759); settings: kinase MAP3K3; for remaining activity at 1 µM: read-out: % of control at 1 µM
T8 construct: purchased Ambit Biosciences (scanMAXX KINOMEscan)
T8 sequence (Q99759 1-626): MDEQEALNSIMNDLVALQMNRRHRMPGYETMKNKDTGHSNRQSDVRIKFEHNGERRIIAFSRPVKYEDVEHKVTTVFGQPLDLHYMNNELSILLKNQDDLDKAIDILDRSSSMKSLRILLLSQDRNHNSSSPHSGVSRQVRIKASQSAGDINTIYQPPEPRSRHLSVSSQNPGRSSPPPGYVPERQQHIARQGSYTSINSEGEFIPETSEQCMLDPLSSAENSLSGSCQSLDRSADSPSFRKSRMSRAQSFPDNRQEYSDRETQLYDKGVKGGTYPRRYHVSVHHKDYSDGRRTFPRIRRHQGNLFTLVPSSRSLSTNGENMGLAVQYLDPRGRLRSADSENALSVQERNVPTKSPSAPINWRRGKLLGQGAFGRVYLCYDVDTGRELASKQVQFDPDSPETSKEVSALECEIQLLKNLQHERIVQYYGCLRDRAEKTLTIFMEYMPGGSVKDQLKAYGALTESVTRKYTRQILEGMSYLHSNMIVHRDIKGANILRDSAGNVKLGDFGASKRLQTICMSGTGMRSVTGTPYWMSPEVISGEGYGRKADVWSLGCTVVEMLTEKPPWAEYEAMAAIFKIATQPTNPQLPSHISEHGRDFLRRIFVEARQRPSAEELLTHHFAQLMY

panel of 442 kinases [9] = biological target: T9, panel of 442 kinases (Homo sapiens, UniProt P32298); settings: kinase GRK4; for remaining activity at 1 µM: read-out: % of control at 1 µM
T9 construct: purchased Ambit Biosciences (scanMAXX KINOMEscan)

panel of 442 kinases [10] = biological target: T10, panel of 442 kinases (Homo sapiens, UniProt Q15349)
T10 construct: purchased Ambit Biosciences (scanMAXX KINOMEscan)
T10 sequence (Q15349 whole entry): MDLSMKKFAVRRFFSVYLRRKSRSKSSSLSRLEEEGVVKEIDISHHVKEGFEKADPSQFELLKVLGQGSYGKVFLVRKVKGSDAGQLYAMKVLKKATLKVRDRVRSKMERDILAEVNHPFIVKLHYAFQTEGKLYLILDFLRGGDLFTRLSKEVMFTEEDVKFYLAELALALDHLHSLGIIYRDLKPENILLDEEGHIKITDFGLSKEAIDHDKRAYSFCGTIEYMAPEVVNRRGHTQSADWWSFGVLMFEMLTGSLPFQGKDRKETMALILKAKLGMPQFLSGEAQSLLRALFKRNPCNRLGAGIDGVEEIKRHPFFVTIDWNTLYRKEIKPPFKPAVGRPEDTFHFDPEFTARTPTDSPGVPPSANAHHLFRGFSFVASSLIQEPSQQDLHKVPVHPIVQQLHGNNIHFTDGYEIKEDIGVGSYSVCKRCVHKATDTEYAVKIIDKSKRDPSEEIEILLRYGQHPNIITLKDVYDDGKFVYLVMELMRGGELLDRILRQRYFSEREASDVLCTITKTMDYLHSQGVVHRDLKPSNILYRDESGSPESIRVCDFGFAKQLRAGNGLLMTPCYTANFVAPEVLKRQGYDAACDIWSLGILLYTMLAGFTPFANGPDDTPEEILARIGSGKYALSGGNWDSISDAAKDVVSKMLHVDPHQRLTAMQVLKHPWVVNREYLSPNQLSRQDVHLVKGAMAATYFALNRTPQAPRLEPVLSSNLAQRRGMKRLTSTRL

[11] = 10 µM, read-out: % of control at 10 µM
[12] = kinase RSK3(Kin.Dom.1-N-terminal), read-out: RSK3(Kin.Dom.1-N-terminal) (% of control at 1 µM)
[13] = kinase RSK3(Kin.Dom.2-C-terminal), read-out: RSK3(Kin.Dom.2-C-terminal) (% of control at 1 µM)

SMILES | remaining activity at 1 µM (panel of 442 kinases [1]) [%] | remaining activity at 1 µM (panel of 442 kinases [2]) [%] | remaining activity at 1 µM (panel of 442 kinases [3]) [%] | remaining activity at 1 µM (panel of 442 kinases [4]) [%] | remaining activity at 1 µM (panel of 442 kinases [5]) [%] | remaining activity at 1 µM (panel of 442 kinases [6]) [%] | remaining activity at 1 µM (panel of 442 kinases [7]) [%] | remaining activity at 1 µM (panel of 442 kinases [8]) [%] | remaining activity at 1 µM (panel of 442 kinases [9]) [%] | remaining activity at 1 µM (panel of 442 kinases [10]; [12]) [%] | remaining activity at 1 µM (panel of 442 kinases [10]; [13]) [%] | also measured
Nc1cc(C(F)(F)F)c(-c2cc(N3CCOCC3)nc(N3CCOCC3)n2)cn1 [Buparlisib] | 98 | 86 | 100 | 89 | 84 | 100 | 100 | 98 | 100 | 95 | 100 | remaining activity at 10 µM (panel of 442 kinases [1]; [11]): 95%; remaining activity at 10 µM (panel of 442 kinases [2]; [11]): 100%; remaining activity at 10 µM (panel of 442 kinases [3]; 10 µM, read-out: PRP4 (% of control at 10 µM)): 93%; remaining activity at 10 µM (panel of 442 kinases [4]; [11]): 84%; remaining activity at 10 µM (panel of 442 kinases [5]; [11]): 100%; remaining activity at 10 µM (panel of 442 kinases [6]; [11]): 100%; remaining activity at 10 µM (panel of 442 kinases [7]; [11]): 100%; remaining activity at 10 µM (panel of 442 kinases [8]; [11]): 100%; remaining activity at 10 µM (panel of 442 kinases [9]; [11]): 100%; remaining activity at 10 µM (panel of 442 kinases [10]; kinase RSK3(Kin.Dom.1-N-terminal), read-out: RSK3(Kin.Dom.1-N-terminal) (% of control at 10 µM)): 100%; remaining activity at 10 µM (panel of 442 kinases [10]; kinase RSK3(Kin.Dom.2-C-terminal), read-out: RSK3(Kin.Dom.2-C-terminal) (% of control at 10 µM)): 100%
Cn1c(=O)n(-c2ccc(C(C)(C)C#N)cc2)c2c3cc(-c4cnc5ccccc5c4)ccc3ncc21 [Dactolisib, 2-methyl-2-[4-(3-methyl-2-oxo-8-quinolin-3-yl-2,3-dihydroimidazo[4,5-c]quinolin-1-yl)-phenyl] propionitrile] | 80 | 93 | 100 | 43 | 94 | 95 | 80 | 81 | 97 | 70 | 75 | 
COc1ncc(-c2ccc3nccc(-c4ccnnc4)c3c2)cc1NS(=O)(=O)c1ccc(F)cc1F [Omipalisib] | 100 | 88 | 95 | 53 | 100 | 100 | 100 | 100 | 100 | 100 | 100 | 
FC(F)c1nc2ccccc2n1-c1nc(N2CCOCC2)nc(N2CCOCC2)n1 [ZSTK474, 2-(difluoromethyl)-1-[4,6-di(4-morpholinyl)-1,3,5-triazin-2-yl]-1H-benzimidazole] | 84 | 97 | 100 | 76 | 100 | 100 | 90 | 74 | 100 | 100 | 100 | 
